Measured values from ChEMBL document CHEMBL3596159, “Beyond substrate analogues: new inhibitor chemotypes for glycosyltransferases” (Medchemcomm, 2014).
*1 amine or outer side, *2 acyl side, *3 side chain or, on linkers, in order; H or OH if unused. Where a SMILES comes first, the peptide text is derived from it. Bridges are numbered along the chain shown (N, C = ends). [ ]: non-standard residue; d: D form. The star is where a group is joined. Orn(4R-OH,5R-OH) = O=C([C@H](C[C@@H](O)[C@@H](O)N[*:3])N[*:1])[*:2]; Tetradecanoyl(10R,12S-Me2) = CC[C@H](C)C[C@H](C)CCCCCCCCC(=O)*; hTyr(3S-OH,4S-OH) = N[C@H](C(=O)O)[C@H](O)[C@@H](O)c1ccc(O)cc1; Gln(3R-OH) = NC(=O)C[C@@H](O)[C@H](N)C(=O)O; Pro(3S-OH) = O=C(O)[C@H]1NCC[C@@H]1O; Hyp = O=C(O)[C@@H]1C[C@@H](O)CN1

Target: T1, CMP-N-acetylneuraminate-beta-galactosamide-alpha-2,3-sialyltransferase 1 (Homo sapiens, UniProt Q11201)
T1 sequence (Q11201 whole entry): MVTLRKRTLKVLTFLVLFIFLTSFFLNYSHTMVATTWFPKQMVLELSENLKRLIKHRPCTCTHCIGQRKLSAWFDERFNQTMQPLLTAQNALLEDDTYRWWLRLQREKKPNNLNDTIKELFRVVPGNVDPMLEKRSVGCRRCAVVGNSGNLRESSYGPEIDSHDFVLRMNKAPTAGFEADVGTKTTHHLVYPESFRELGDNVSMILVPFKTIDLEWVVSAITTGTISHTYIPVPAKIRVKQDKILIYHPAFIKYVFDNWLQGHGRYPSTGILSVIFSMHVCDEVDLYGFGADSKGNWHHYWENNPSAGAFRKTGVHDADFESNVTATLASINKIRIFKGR
Experiment: Inhibition of ST3Gal 1 (unknown origin)
Conditions: not given
With `C[C@H](CCC(=O)O)[C@H]1CC[C@H]2[C@@H]3CC[C@@H]4C[C@H](O)CC[C@]4(C)[C@H]3CC[C@]12C` [LITHOCHOLIC ACID] the IC50 was 21 µM. Compound `C[C@H](CCCn1cc(CCCC(=O)O)nn1)[C@H]1CC[C@H]2[C@@H]3CC[C@@H]4C[C@H](O)CC[C@]4(C)[C@H]3CC[C@]12C` has an IC50 of 5 µM and a Ki of 2.2 µM.

Test system: not listed separately
Experiment: Inhibition of candida albicans beta-(1,3)-glucan synthase assessed as decrease in transfer of radiolabelled glucose from UDP-[3H]-glucose onto acceptor
Conditions: not given
`CC[C@H](C)C[C@H](C)CCCCCCCCC(=O)N[C@H]1C[C@@H](O)[C@@H](OCCN)NC(=O)[C@@H]2[C@@H](O)CCN2C(=O)[C@H]([C@H](O)CCN)NC(=O)[C@H]([C@H](O)[C@@H](O)c2ccc(O)cc2)NC(=O)[C@@H]2C[C@@H](O)CN2C(=O)[C@H]([C@@H](C)O)NC1=O` gave an IC50 of 0.001 µM. In the case of `CC[C@H](C)C[C@H](C)CCCCCCCCC(=O)N[C@H]1C[C@@H](O)[C@@H](O)NC(=O)[C@@H]2[C@@H](O)CCN2C(=O)[C@H]([C@H](O)CC(N)=O)NC(=O)[C@H]([C@H](O)[C@@H](O)c2ccc(O)cc2)NC(=O)[C@@H]2C[C@@H](O)CN2C(=O)[C@H]([C@@H](C)O)NC1=O` ({Tetradecanoyl(10R,12S-Me2)}-[Orn(4R-OH,5R-OH)]T[Hyp][hTyr(3S-OH,4S-OH)][Gln(3R-OH)][Pro(3S-OH)]; lactam 1-C), the IC50 is reported as 0.07 µM.

Test system: Streptococcus mutans
Experiment: Inhibition of Streptococcus mutans sucrose-6-glucosyltransferase at 50 uM
Conditions: not given
With `CCCCCCCC/C=C\CCCCCCCC(=O)O` the inhibition was 42.4%. In the case of `CCCCCCCC/C(I)=C(/I)CCCCCCCC(=O)OCC(COC(=O)CCCCCCC/C(I)=C(/I)CCCCCCCC)OC(=O)CCCCCCC/C(I)=C(/I)CCCCCCCC`, the inhibition is reported as 26.3%. In the case of `CCCCCCCC/C=C\CCCCCCCC(=O)OC`, the inhibition is reported as 16.8%.

Target: T2, UDP-N-acetylglucosamine--N-acetylmuramyl-(pentapeptide) pyrophosphoryl-undecaprenol N-acetylglucosamine transferase (Escherichia coli (strain K12)) (UniProt P17443)
T2 sequence (whole entry): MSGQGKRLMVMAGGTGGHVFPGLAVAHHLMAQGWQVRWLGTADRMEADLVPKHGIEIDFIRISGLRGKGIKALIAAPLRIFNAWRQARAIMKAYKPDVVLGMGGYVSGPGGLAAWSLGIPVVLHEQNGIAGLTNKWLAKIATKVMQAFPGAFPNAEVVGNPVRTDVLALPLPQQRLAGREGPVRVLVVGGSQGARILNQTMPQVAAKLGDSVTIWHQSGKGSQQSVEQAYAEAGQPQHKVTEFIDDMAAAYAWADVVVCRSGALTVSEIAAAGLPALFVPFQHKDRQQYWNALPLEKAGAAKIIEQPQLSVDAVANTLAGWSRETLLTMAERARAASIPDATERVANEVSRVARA
Experiment: Inhibition of Escherichia coli MurG at 2.5 microg/ml
Conditions: not given
For `NS(=O)(=O)c1ccc(-c2ccc(/C=C3\C(=O)N(c4cccc(S(N)(=O)=O)c4)N=C3C(F)(F)F)o2)cc1`, the inhibition was 66%. `COc1cc(/C=C2\C(=O)NC(=O)N(c3ccc(C)cc3)C2=O)cc([N+](=O)[O-])c1O` gave an inhibition of 72%. `O=C(CN1C(=O)S/C(=C/c2ccc(Cl)cc2)C1=O)Nc1cc([N+](=O)[O-])ccc1O` showed an inhibition of 72%. In the case of `COc1c(N/C=C2\C(=O)N(c3ccccc3C)N=C2C)cc([N+](=O)[O-])cc1[N+](=O)[O-]`, the inhibition is reported as 66%. `CC1=NN(c2ccc(Cl)c(C(=O)O)c2)C(=O)/C1=C\c1ccc(-c2ccccc2C(=O)O)o1` gave an inhibition of 48%. In the case of `COc1cc(/C=C2\C(=O)N(c3ccc(Cl)c(C(=O)O)c3)N=C2C)cc([N+](=O)[O-])c1O`, the inhibition is reported as 54%. In the case of `O=C1N/C(=N/c2ccccc2)S/C1=C/c1cc(Br)cc(Cl)c1O`, the inhibition is reported as 71%. `Cc1cc(/C=C2\C(=O)NC(=S)N(c3ccc(Cl)cc3)C2=O)c(C)n1-c1cc(C(=O)O)cc(C(=O)O)c1` gave an inhibition of 88%.

Test system: Trypanosoma brucei
Experiment: Inhibition of Trypanosoma brucei DPMS at 1 mM
Conditions: not given
For `O=C(O)CN1C(=O)/C(=C\c2ccc(OCc3ccccc3)c(OCc3ccccc3)c2)SC1=S`, the inhibition was 80%. In the case of `O=C(O)CN1C(=O)/C(=C\c2ccccc2O)SC1=S`, the inhibition is reported as 77%. Compound `O=C(O)CN1C(=O)/C(=C\c2cccc(OCc3ccccc3)c2)SC1=S` has an inhibition of 77%.

Test system: not listed separately
Experiment: Inhibition of MraY (unknown origin)
Conditions: not given
With `NC[C@H]1O[C@@H](O[C@H](c2cn(CCCCCCCCCCOc3ccc(C(=O)c4ccccc4)cc3)nn2)[C@H]2O[C@@H](n3ccc(=O)[nH]c3=O)[C@H](O)[C@@H]2O)[C@H](O)[C@@H]1O` the IC50 was 125 µM. Work on `NC[C@H]1O[C@@H](O[C@H](c2cn(CCCCCOc3ccc(C(=O)c4ccccc4)cc3)nn2)[C@H]2O[C@@H](n3ccc(=O)[nH]c3=O)[C@H](O)[C@@H]2O)[C@H](O)[C@@H]1O` yielded an IC50 of 100 µM. `NC[C@H]1O[C@@H](O[C@H](c2cn(Cc3ccc(COc4ccc(C(=O)c5ccccc5)cc4)cc3)nn2)[C@H]2O[C@@H](n3ccc(=O)[nH]c3=O)[C@H](O)[C@@H]2O)[C@H](O)[C@@H]1O` showed an IC50 of 50 µM. Compound `NC[C@H]1O[C@@H](O[C@H](c2cn(CCCOc3ccc(C(=O)c4ccccc4)cc3)nn2)[C@H]2O[C@@H](n3ccc(=O)[nH]c3=O)[C@H](O)[C@@H]2O)[C@H](O)[C@@H]1O` has an IC50 of 100 µM.

Target: T3, UDP-N-acetylglucosamine--peptide N-acetylglucosaminyltransferase 110 kDa subunit (Homo sapiens) (UniProt O15294)
T3 sequence (whole entry): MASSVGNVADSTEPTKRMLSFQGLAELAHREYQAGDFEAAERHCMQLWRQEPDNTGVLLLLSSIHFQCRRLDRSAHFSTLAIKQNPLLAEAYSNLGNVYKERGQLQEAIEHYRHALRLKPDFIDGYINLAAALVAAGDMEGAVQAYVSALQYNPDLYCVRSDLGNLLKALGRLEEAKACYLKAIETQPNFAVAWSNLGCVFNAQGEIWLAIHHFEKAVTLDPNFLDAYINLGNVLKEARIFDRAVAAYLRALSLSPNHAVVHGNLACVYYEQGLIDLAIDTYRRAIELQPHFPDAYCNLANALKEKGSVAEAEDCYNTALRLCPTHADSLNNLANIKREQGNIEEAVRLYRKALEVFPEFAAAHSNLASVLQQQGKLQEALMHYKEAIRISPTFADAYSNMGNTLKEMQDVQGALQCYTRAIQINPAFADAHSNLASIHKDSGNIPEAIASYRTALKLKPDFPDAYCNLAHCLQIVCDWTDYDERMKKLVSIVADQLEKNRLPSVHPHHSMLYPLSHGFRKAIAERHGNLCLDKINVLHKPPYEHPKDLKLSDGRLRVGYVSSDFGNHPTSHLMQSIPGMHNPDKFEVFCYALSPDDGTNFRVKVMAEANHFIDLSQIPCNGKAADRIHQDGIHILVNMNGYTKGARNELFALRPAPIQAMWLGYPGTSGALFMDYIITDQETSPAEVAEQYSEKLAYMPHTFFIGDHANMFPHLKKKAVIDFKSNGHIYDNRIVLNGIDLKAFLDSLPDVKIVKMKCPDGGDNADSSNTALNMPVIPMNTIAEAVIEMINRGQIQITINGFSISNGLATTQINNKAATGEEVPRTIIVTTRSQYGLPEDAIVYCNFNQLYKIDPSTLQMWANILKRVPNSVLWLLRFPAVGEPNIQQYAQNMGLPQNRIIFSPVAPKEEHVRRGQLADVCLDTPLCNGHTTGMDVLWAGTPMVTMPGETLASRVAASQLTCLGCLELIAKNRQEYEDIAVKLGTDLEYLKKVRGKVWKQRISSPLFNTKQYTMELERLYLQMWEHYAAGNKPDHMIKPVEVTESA
Experiment: Inhibition of OGT (unknown origin)
Conditions: concentration not given here
With `O=C(/C=C/c1cccs1)Nc1scc(-c2ccccc2)c1C(=O)O` the inhibition was over 30%. Work on `CCOC(=O)C(C(C)C)C(N)Cc1ccc(F)cc1` (configuration not stated) yielded an inhibition of over 30%. In the case of `O=C(O)c1ccc2scnc2c1`, the inhibition is reported as over 30%.

Target: T4, Ceramide glucosyltransferase (Homo sapiens) (UniProt Q16739)
T4 sequence (whole entry): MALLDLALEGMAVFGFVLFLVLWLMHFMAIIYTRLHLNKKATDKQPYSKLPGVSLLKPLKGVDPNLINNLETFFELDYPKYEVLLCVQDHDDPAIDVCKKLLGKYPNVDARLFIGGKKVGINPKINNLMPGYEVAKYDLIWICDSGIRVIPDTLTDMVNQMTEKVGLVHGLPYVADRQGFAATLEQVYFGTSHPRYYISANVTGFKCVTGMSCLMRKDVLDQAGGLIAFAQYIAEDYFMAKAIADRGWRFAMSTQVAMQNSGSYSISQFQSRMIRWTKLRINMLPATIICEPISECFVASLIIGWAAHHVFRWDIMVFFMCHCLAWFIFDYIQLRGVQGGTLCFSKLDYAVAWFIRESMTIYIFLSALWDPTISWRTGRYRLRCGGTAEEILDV
Experiment: Inhibition of glucosylceramide synthase (unknown origin) at 5 uM
Conditions: not given
Work on `CCCCCCCCCCCCC/C=C/[C@H](O)[C@H](CN1CCOCC1)NC(=O)CCCCCCCCCCCCCCC` yielded an inhibition of 5%. Work on `CCCCCCCCCCCCC/C=C/[C@H](O)[C@@H](CN1CCOCC1)NC(=O)CCCCCCCCCCCCCCC` yielded an inhibition of 5%. For `CCCCCCCCCCCCC/C=C/[C@@H](O)[C@H](CN1CCOCC1)NC(=O)CCCCCCCCCCCCCCC`, the inhibition was 5%. For `CCCCCCCCCCCCC/C=C/[C@@H](O)[C@@H](CN1CCCC1)NC(=O)CCCCCCCCCCCCCCC`, the inhibition was 87%. Work on `CCCCCCCCCC(=O)N[C@H](CN1CCOCC1)[C@H](O)c1ccccc1` yielded an inhibition of 16%. `CCCCCCCCCCCCCCCC(=O)N[C@H](CN1CCCC1)[C@H](O)c1ccccc1` showed an inhibition of 50%. `CCCCCCCCCCCCCCCC(=O)N[C@H](CN1CCOCC1)[C@H](O)c1ccccc1` showed an inhibition of 32%. Work on `CCCCCCCCCCCCC/C=C/[C@@H](O)[C@@H](CN1CCOCC1)NC(=O)CCCCCCCCCCCCCCC` yielded an inhibition of 73%.

Target: T5, Phospho-N-acetylmuramoyl-pentapeptide-transferase/UDP-N-acetylglucosamine--N-acetylmuramyl-(pentapeptide) pyrophosphoryl-undecaprenol N-acetylglucosamine transf (Escherichia coli K-12, UniProt P0A6W3+P17443)
T5 sequence (P0A6W3 whole entry): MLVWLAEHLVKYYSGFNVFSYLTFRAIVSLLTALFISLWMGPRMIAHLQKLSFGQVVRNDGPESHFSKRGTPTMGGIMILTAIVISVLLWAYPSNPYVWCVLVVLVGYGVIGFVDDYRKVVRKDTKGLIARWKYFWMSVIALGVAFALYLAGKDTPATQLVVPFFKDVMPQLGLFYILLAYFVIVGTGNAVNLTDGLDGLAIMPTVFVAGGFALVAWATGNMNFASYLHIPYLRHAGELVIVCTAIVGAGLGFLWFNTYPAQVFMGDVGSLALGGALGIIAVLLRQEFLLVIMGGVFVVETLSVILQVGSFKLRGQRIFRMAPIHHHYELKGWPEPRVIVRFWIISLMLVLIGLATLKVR
T5 sequence (P17443 whole entry): T2 sequence (whole entry)
Experiment: Inhibition of Escherichia coli MraY/MurG
Type: protein assay
Conditions: not given
With `CCOC(=O)c1ccccc1-c1c2cc(Br)c(=O)c(Br)c-2oc2c(Br)c(O)c(Br)cc12` the IC50 was 18.4 µM. In the case of `O=C1OC2(c3cc(I)c(O)cc3Oc3cc(O)c(I)cc32)c2ccccc21`, the IC50 is reported as 166 µM. With `COC1=C(O)c2c(O)cc(C)c3c(O)cc(O)c(c23)C1=O` the IC50 was 54 µM.
